Assay: photoluminescence quantum yield (fraction); solvent given as SMILES

SMILES: CC(=O)c1nc(-c2ccc(N(C)C)cc2)oc1C
- photoluminescence quantum yield (in CC#N): 0.029
- photoluminescence quantum yield (in CCO): 0.019
- photoluminescence quantum yield (in CCOC(C)=O): 0.03
- photoluminescence quantum yield (in CCOCC): 0.016
- photoluminescence quantum yield (in ClCCl): 0.044

SMILES: Cc1cc(C)c(B(c2c(C)cc(C)cc2C)c2c(C)cc(-n3c4ccc(N(c5ccccc5)c5ccccc5)cc4c4cc(N(c5ccccc5)c5ccccc5)ccc43)cc2C)c(C)c1
- photoluminescence quantum yield (in Cc1ccccc1): 0.84
- photoluminescence quantum yield (in O=P(c1ccccc1)(c1ccccc1)c1ccccc1Oc1ccccc1P(=O)(c1ccccc1)c1ccccc1): 1

SMILES: CC(C)[Si]1(C(C)C)c2cc(C=O)ccc2-c2ccc(N(C)C)cc21
- photoluminescence quantum yield (in C1CCCCC1): 0.08
- photoluminescence quantum yield (in CC#N): 0.81
- photoluminescence quantum yield (in CCO): 0.4
- photoluminescence quantum yield (in CCOCC): 0.79
- photoluminescence quantum yield (in CS(C)=O): 0.57
- photoluminescence quantum yield (in ClCCl): 0.71
- photoluminescence quantum yield (in c1ccccc1): 0.75

SMILES: c1ccc(N(c2ccccc2)c2c3ccccc3cc3ccccc23)cc1
- photoluminescence quantum yield (in Cc1ccccc1): 0.92

SMILES: CCC(CC)n1c2ccccc2c2cc3c(cc21)c1ccccc1n3C(CC)CC
- photoluminescence quantum yield (in ClC(Cl)Cl): 0.16

SMILES: Cc1cc(C)c(B2c3cc(C(C)(C)C)ccc3-c3cccc4cc(C(C)(C)C)cc2c34)c(C)c1
- photoluminescence quantum yield (in C1CCCCC1): 0.8

SMILES: O=C(c1ccccc1)c1cc2ccc1CCc1ccc(cc1-c1ccc(N(c3ccccc3)c3ccccc3)cc1)CC2
- photoluminescence quantum yield (in c1cc(-n2c3ccccc3c3ccccc32)cc(-n2c3ccccc3c3ccccc32)c1): 0.12

SMILES: CCOC(=O)C1=C(C(=O)OCC)C2(c3ccccc3-c3ccccc32)[C@@H](c2ccccc2)C=C2c3cc(OC)c(OC)cc3CCN21
- photoluminescence quantum yield (in ClCCl): 0.00154

SMILES: CCC1=C(C)C2=C(c3c4ccccc4c(C)c4ccccc34)c3c(C)c(CC)c(C)n3[B-](F)(F)[N+]2=C1C
- photoluminescence quantum yield (in CC#N): 0.054
- photoluminescence quantum yield (in CCCCCC): 0.883
- photoluminescence quantum yield (in CCO): 0.314
- photoluminescence quantum yield (in CN(C)C=O): 0.111
- photoluminescence quantum yield (in Cc1ccccc1): 0.863
- photoluminescence quantum yield (in ClCCl): 0.667

SMILES: CCCCCCN(c1ccccc1)c1ccc2c(c1)C(CC)(CC)c1cc(/C=C/c3ccc(/C=C(\C#N)C(=O)O)s3)ccc1-2
- photoluminescence quantum yield (in C1CCOC1): 0.458
- photoluminescence quantum yield (in C1COCCO1): 0.813
- photoluminescence quantum yield (in CC#N): 0.105
- photoluminescence quantum yield (in CC(C)=O): 0.251
- photoluminescence quantum yield (in CCOC(C)=O): 0.443
- photoluminescence quantum yield (in CN(C)C=O): 0.638
- photoluminescence quantum yield (in CS(C)=O): 0.322
- photoluminescence quantum yield (in ClCCl): 0.047

SMILES: NS(=O)(=O)c1ccc(N2N=C(c3ccc(O)cc3)CC2c2ccc(F)cc2)cc1 (stereo unspecified)
- photoluminescence quantum yield (in C1CCOC1): 0.88
- photoluminescence quantum yield (in C1COCCO1): 0.78
- photoluminescence quantum yield (in CC#N): 0.75
- photoluminescence quantum yield (in CC(C)O): 0.52
- photoluminescence quantum yield (in CCO): 0.47
- photoluminescence quantum yield (in CCOC(C)=O): 0.87
- photoluminescence quantum yield (in CN(C)C=O): 0.89
- photoluminescence quantum yield (in CO): 0.36
- photoluminescence quantum yield (in CS(C)=O): 0.93
- photoluminescence quantum yield (in O): 0.57

SMILES: c1ccc(-c2nc3c(ccc4[nH]ccc43)o2)cc1
- photoluminescence quantum yield (in C1CCCCC1): 0.6
- photoluminescence quantum yield (in C1COCCO1): 0.78
- photoluminescence quantum yield (in CC#N): 0.72
- photoluminescence quantum yield (in CO): 0.55
- photoluminescence quantum yield (in Cc1ccccc1): 0.69
- photoluminescence quantum yield (in O): 0.54

SMILES: CCn1c2ccccc2c2cc(-c3cc(-c4ccc5c(c4)c4ccccc4n5CC)nc(OC)n3)ccc21
- photoluminescence quantum yield (in C1CCOC1): 0.48
- photoluminescence quantum yield (in CCOC(C)=O): 0.76
- photoluminescence quantum yield (in CN(C)C=O): 0.69
- photoluminescence quantum yield (in Cc1ccccc1): 0.68
- photoluminescence quantum yield (in ClCCl): 0.69

SMILES: CCN(CC)c1ccc2cc(-c3nc4ccccc4s3)c(=O)oc2c1
- photoluminescence quantum yield (in C1CCCCC1): 0.59
- photoluminescence quantum yield (in CC1CCCCC1): 0.56
- photoluminescence quantum yield (in CC#N): 0.43
- photoluminescence quantum yield (in CCC(C)CC): 0.57
- photoluminescence quantum yield (in CCCCCC): 0.57
- photoluminescence quantum yield (in CCOC(C)=O): 0.47

SMILES: O=c1ccc2ccccc2o1
- photoluminescence quantum yield (in O): 0.001

SMILES: C=C(C)C(CN1C(=O)c2cccc3c2c(cc2oc(C)nc23)C1=O)OO (stereo unspecified)
- photoluminescence quantum yield (in CCO): 0.096

SMILES: Oc1ccccc1-c1nc2c3ccccc3c3ccccc3c2o1
- photoluminescence quantum yield (in Cc1ccccc1): 0.003

SMILES: CN(C)c1ccc(C(=Cc2ccc(/C=C(\C#N)c3ccccc3)cc2)c2ccc(N(C)C)cc2)cc1
- photoluminescence quantum yield (in C1CCOC1): 0.053

SMILES: CN(C)c1ccc(/C=C/C=N/N=C/c2ccc3ccc4cccc5ccc2c3c45)cc1
- photoluminescence quantum yield (in CC#N): 0.032
- photoluminescence quantum yield (in CC(C)(C)O): 0.02
- photoluminescence quantum yield (in CC(C)=O): 0.01
- photoluminescence quantum yield (in CC(C)O): 0.015
- photoluminescence quantum yield (in CCCCO): 0.018
- photoluminescence quantum yield (in CO): 0.025
- photoluminescence quantum yield (in CS(C)=O): 0.044
- photoluminescence quantum yield (in ClC(Cl)Cl): 0.007
- photoluminescence quantum yield (in ClCCl): 0.008
- photoluminescence quantum yield (in O): 0.016

SMILES: O=C1OC(=O)C2=C1[Se][C@]13C2=C[C@H](c2ccccc21)c1ccccc13
- photoluminescence quantum yield (in ClCCl): 0.62

SMILES: COC(=O)c1[nH]c(-c2ccc(Br)cc2)c2nnc3ccc(OC)cc3c12
- photoluminescence quantum yield (in ClCCl): 0.114

SMILES: NC(=O)CC[C@H](/[NH+]=C\C=C1\C=C(C(=O)O)N[C@H](C(=O)O)C1)C(=O)O
- photoluminescence quantum yield (in CCO): 0.017
- photoluminescence quantum yield (in CO): 0.011
- photoluminescence quantum yield (in O): 0.0073
- photoluminescence quantum yield (in OCC(F)(F)F): 0.014
- photoluminescence quantum yield (in OCCO): 0.039

— the Deep4Chem optical property database
